# ChEMBL document CHEMBL1201862, “PubChem BioAssay data set” (2004)
# The source made the active and inactive calls.
# Tests used:
# [1] = target: T1, Endoribonuclease toxin MazF (Escherichia coli K-12, UniProt P0AE70); assay: MazEF toxin-antitoxin RNase activation – biochemical, fluorescence, single-stranded RNA substrate, SAR follow-up (AID 588603); format: functional
# T1 sequence (P0AE70 whole entry): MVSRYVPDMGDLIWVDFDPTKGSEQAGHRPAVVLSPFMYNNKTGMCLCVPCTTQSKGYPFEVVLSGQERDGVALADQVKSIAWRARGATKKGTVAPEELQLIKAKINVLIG
# [2] = target: T1, Endoribonuclease toxin MazF; assay: activation of MazEF endoribonuclease cleavage – biochemical, fluorescence, single-stranded RNA substrate, uHTS hits, dose response (AID 588481); format: functional
# [3] = tested on: MEF; assay: SAR analysis of small molecule cytotoxicity of MazEF TA System activators in embryonic fibroblast (MEF) cells. [Related pubchem assays (depositor defined):AID504720, AID504743]; format: functional; conditions: Mus musculus
# [4] = target: T1, Endoribonuclease toxin MazF; assay: SAR analysis of small molecule activators of the MazEF TA System via a fluorescence-based single-stranded RNase assay counterscreen. [Related pubchem assays (depositor defined):AID504720, AID504743]; format: functional
# [5] = target: T1, Endoribonuclease toxin MazF; assay: substrate-only fluorescence increase artefacts – biochemical, single-stranded RNase substrate, counter-screen for MazEF activator project, dose response (AID 588502); format: functional
# [6] = tested on: HEK293; assay: cells; format: functional, cell-based; conditions: Homo sapiens
# [7] = target: Nuclear receptor subfamily 0 group B member 1 (Homo sapiens, UniProt P51843); assay: Luminescence-based cell-based high throughput dose response assay for inhibitors of the orphan nuclear receptor subfamily 0, group B, member 1 (DAX1; NR0B1). [Related pubchem assays (depositor defined):AID504766, AID504790]; format: functional
# [8] = target: T2, ORF 73 (Human herpesvirus 8, UniProt O40947); assay: KSHV LANA DNA-binding disruption – biochemical, fluorescence polarization, cherry-picked samples, dose response (AID 504725); design: species or system Human gammaherpesvirus 8;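 further: fluorescence polarization of a labeled DNA duplex reporting LANA DNA binding; potency is for inhibitors that block LANA binding to the DNA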
# T2 sequence (O40947 whole entry): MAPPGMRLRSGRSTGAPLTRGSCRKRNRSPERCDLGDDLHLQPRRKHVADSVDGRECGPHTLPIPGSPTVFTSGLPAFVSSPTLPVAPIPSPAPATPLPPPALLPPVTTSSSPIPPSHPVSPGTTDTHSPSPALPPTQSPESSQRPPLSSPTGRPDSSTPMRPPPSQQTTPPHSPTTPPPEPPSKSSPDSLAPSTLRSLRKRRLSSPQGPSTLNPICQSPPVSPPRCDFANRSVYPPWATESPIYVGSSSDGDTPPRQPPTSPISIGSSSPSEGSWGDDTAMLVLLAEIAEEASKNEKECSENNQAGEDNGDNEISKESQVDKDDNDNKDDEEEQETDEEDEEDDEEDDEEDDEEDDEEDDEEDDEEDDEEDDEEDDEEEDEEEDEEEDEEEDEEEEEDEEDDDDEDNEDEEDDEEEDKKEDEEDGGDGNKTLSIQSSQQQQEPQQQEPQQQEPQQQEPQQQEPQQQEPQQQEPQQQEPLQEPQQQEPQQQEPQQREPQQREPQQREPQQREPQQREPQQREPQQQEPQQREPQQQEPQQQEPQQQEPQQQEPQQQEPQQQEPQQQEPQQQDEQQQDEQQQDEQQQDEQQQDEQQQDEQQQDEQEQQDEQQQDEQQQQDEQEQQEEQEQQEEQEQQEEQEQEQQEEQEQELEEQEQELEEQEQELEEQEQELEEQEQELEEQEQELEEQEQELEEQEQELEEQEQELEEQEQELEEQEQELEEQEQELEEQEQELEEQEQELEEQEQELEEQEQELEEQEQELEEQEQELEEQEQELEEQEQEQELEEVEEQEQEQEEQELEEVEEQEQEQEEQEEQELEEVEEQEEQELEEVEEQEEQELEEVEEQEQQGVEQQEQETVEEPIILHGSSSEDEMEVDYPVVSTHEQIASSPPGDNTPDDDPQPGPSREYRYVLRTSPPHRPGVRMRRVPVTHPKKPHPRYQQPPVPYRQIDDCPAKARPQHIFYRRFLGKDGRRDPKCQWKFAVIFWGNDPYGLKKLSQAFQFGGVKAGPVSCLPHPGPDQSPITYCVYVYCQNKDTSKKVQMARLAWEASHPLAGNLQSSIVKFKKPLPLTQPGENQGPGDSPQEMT
# [9] = target: Troponin, cardiac muscle (Homo sapiens, UniProt P19429+P45379+P63316); assay: Fluorescence-based biochemical high throughput dose response assay for activators of the calcium sensitivity of cardiac Regulated Thin Filaments (RTF). [Related pubchem assays (depositor defined):AID493008, AID493018, AID504382, AID504383]; format: protein-complex assay
# [10] = target: UDP-galactopyranose mutase (Mycobacterium tuberculosis, UniProt P9WIQ1); assay: Inhibitors of Mycobacterium tuberculosis UDP-galactopyranose mutase (UGM) enzyme Measured in Biochemical System Using Plate Reader - 2105-02_Inhibitor_Dose_CherryPick_Activity. [Related pubchem assays (depositor defined):AID504439]
# [11] = target: T3, Insulin-degrading enzyme (Homo sapiens, UniProt P14735); assay: recombinant IDE activation, cell-free – biochemical, fluorescence polarization, counter-screen for IDE activator project, dose response (AID 588681)
# T3 sequence (P14735 whole entry): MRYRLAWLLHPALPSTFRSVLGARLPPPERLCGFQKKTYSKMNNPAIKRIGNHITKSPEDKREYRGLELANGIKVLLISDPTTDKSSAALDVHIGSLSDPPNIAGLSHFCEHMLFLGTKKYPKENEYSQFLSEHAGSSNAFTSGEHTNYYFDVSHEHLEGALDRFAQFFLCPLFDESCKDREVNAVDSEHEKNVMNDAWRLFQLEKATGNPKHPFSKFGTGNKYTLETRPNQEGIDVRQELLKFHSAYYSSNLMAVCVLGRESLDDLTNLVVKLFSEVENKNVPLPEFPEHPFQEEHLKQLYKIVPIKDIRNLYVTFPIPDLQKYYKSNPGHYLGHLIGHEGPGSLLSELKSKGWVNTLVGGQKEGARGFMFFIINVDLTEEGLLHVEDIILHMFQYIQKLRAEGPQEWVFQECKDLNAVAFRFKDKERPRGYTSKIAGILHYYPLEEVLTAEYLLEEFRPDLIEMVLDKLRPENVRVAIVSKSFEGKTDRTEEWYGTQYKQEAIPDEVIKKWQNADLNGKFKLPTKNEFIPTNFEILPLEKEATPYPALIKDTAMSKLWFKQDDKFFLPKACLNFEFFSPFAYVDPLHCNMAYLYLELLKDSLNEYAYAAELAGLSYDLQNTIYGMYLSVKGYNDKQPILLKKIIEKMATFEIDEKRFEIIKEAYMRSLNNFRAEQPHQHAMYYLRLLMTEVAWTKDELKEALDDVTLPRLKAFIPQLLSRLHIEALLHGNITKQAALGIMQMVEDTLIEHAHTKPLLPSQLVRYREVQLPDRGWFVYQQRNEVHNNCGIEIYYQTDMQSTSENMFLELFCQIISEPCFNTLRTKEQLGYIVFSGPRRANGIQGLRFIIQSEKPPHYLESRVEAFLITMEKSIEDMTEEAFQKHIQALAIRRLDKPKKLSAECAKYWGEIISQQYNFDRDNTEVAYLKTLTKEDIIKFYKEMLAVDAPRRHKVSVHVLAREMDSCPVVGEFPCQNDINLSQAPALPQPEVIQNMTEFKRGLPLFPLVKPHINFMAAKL
# [12] = target: T3, Insulin-degrading enzyme; assay: cellular IDE activation of Abeta substrate cleavage – fluorescence polarization, HEK cells, dose response (AID 588439); format: functional, cell-based
# [13] = tested on: HEK293; assay: membrane integrity loss in HEK cells – cell-based, fluorescence, cytotoxicity control for IDE activator project, dose response (AID 588440); format: functional; conditions: Homo sapiens;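 further: cytotoxicity by LDH release measuring loss of membrane integrity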
# [14] = tested on: HEK293; assay: optical interference in Abeta FP readout, dose response, artefact control for IDE activator project, biochemical, fluorescence polarization (AID 588442); format: functional, cell-based; conditions: Homo sapiens
# [15] = target: T4, Fibrinogen beta chain (Homo sapiens, UniProt P02675); assay: Fluorescence polarization-based biochemical high throughput dose response assay to identify inhibitors that disrupt the binding of a cyclic peptide (Tn6) to the fibrin proteolytic product D-Dimer and fragment E complex [DD(E )].
# [16] = target: T4, Fibrinogen beta chain; assay: Fluorescence polarization-based biochemical high throughput dose response assay to identify inhibitors that disrupt the binding of a cyclic peptide (Tn7) to the fibrin proteolytic product D-Dimer and fragment E complex [DD(E )].
# [17] = tested on: Candida albicans; assay: antifungal activity against resistant Candida strain – CaCi-8, fluconazole, Alamar Blue, dry powder, dose response (AID 488807); format: functional, organism-based
# [18] = tested on: NIH3T3; assay: mammalian cell viability counter-check – Alamar Blue, fluconazole, dry powder, cytotoxicity control for antifungal drug resistance project, dose response (AID 488809); format: functional, cell-based; conditions: Mus musculus
# [19] = Fluorescence polarization-based biochemical high throughput dose response assay for activators of the Protein Kinase A-R1A (PKA-R1A) complex. [Related pubchem assays (depositor defined):AID504704, AID504707, AID504799, AID504800]
# [20] = Fluorescence polarization-based biochemical high throughput dose response assay for activators of the Protein Kinase A-R2B (PKA-R2B) complex. [Related pubchem assays (depositor defined):AID504700, AID504704, AID504796, AID504797]
# [21] = target: Dual specificity protein phosphatase 3 (Homo sapiens, UniProt P51452); assay: SAR VHR1 Fluorescent Assay for In Vitro dose response studies Set 3. [Related pubchem assays (depositor defined):AID1654, AID1661, AID1878]; format: functional
# [22] = tested on: Streptococcus sp. 'group A'; assay: Streptococcus pyogenes SK(-)GAS viability under kanamycin – luminescence, BacTiterGlo, confirmation, counter-screen for streptokinase expression inhibitor project, dose response (AID 1900); format: functional, organism-based
# [23] = target: T5, Streptokinase A (Streptococcus pyogenes serotype M1, UniProt P10520); assay: viability-normalized secreted streptokinase activity reduction – plasminogen activation absorbance, OD405, dose response (AID 1914); format: functional, Streptococcus pyogenes M1 GAS;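 further: secreted streptokinase activity via plasminogen activation per viability signal from cell pellet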
# T5 sequence (P10520 whole entry): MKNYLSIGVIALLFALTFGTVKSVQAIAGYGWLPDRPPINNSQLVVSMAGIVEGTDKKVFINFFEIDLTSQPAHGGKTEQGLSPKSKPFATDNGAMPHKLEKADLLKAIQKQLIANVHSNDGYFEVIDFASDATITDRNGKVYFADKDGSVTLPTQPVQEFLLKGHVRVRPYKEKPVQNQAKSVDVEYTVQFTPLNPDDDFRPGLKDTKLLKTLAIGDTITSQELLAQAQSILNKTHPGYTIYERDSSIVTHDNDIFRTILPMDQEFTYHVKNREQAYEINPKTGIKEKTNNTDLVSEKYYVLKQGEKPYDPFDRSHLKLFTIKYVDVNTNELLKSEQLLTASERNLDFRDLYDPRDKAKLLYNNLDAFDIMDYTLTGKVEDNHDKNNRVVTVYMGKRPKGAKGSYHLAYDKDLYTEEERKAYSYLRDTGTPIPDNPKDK
# [24] = tested on: Streptococcus; assay: GAS UMAA2166 growth inhibition – luminescence, BacTiterGlo, counter-screen for streptokinase expression inhibitor project, dose response (AID 1915); format: functional, organism-based;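 further: potency for reduction of bacterial viability or growth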
# [25] = target: Cysteine protease ATG4B (Homo sapiens, UniProt Q9Y4P1); format: functional;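 further: Fluorescence-based dose-response confirmation assay measuring inhibition of ATG4B activity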
# [26] = target: Phospholipase A2 (Homo sapiens, UniProt P04054); format: functional;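 further: confirmatory dose-response counterscreen on phospholipase A2, testing hits that came from an ultra-high-throughput screen for ATG4B inhibitors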
# Chain of Phospholipase A2 (P04054 whole entry): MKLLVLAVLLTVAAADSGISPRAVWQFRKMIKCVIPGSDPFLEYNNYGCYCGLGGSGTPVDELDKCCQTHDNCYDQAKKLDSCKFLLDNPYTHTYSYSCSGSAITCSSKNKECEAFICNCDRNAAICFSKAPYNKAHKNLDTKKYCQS
# T4 sequence (P02675 whole entry, the tested form may be a part): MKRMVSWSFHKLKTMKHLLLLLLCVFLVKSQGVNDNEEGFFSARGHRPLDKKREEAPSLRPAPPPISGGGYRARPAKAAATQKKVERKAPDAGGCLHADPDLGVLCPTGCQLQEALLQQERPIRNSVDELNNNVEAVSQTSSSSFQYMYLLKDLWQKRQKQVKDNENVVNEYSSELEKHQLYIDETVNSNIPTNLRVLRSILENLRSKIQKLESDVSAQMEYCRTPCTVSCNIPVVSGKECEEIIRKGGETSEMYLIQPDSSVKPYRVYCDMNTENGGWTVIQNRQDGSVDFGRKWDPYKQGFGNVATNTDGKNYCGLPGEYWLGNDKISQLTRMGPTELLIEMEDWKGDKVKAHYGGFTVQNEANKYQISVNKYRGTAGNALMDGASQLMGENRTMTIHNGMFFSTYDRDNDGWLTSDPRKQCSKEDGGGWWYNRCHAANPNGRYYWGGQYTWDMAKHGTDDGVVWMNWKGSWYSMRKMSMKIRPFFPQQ
# Chain of Cysteine protease ATG4B (Q9Y4P1 whole entry): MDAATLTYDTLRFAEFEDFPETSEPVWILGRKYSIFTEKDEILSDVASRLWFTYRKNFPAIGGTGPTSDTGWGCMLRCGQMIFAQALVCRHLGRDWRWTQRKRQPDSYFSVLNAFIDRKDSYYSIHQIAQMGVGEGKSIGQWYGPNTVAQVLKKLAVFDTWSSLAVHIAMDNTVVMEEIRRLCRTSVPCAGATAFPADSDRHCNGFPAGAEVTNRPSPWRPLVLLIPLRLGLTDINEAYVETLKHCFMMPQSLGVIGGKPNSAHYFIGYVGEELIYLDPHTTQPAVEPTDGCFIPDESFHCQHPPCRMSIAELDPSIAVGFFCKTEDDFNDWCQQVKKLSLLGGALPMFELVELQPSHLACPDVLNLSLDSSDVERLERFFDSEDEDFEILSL
# Chain of Dual specificity protein phosphatase 3 (P51452 whole entry): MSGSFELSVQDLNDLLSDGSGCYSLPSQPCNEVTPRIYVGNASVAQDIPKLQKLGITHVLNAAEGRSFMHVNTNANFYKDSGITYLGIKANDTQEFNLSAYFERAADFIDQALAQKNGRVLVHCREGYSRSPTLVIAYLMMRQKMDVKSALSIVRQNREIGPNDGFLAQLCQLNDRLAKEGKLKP
# Chain of Nuclear receptor subfamily 0 group B member 1 (P51843 whole entry): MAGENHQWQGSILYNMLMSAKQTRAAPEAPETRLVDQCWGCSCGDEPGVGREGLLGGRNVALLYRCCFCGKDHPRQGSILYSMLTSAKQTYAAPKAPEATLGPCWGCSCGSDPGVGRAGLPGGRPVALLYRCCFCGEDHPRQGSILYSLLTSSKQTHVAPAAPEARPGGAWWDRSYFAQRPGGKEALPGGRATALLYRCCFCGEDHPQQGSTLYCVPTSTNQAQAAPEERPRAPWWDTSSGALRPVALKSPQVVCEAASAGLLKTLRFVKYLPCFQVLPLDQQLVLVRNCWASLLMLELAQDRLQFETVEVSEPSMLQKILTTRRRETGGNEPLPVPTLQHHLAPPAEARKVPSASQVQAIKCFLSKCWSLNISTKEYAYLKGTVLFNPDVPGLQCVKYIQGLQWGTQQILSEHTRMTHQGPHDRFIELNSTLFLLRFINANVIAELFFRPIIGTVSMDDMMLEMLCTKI
# Chain of UDP-galactopyranose mutase (P9WIQ1 whole entry): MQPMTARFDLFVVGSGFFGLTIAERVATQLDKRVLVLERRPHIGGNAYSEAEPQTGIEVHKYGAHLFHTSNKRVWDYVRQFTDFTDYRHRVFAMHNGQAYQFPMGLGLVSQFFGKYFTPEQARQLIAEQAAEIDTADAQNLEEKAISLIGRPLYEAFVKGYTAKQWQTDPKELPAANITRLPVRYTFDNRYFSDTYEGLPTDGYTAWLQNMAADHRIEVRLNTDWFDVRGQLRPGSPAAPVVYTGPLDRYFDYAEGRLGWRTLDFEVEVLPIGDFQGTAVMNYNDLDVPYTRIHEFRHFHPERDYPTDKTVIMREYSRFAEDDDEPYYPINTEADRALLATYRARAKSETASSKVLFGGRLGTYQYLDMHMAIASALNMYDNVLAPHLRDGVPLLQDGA
smiles,measurement,setting,value
CCN1C(C)=C(C)S/C1=C1\SC(=S)N(C2CCCCC2)C1=O,EC50,[1],22.4 µM (inactive)
same,EC50,[2],29.1 µM (inactive)
same,CC50,[3],> 99 µM (inactive)
same,EC50,[4],> 99 µM (inactive)
same,EC50,[5],> 99 µM (inactive)
COc1ccc(N2C(=O)C3C(c4ccc(OC)cc4O)NC(Cc4ccccc4)(C(=O)O)C3C2=O)cc1 (stereo unspecified),IC50,[6],> 67.5 µM (inactive)
same,IC50,[7],> 67.5 µM (inactive)
Oc1ccc2ccc3cccc[n+]3c2c1,AC50,[8],1.61 µM (active)
same,EC50,[9],1.21 µM (active)
same,AC50,[10],3.84 µM (active)
same,EC50,[11],> 54.7 µM (inactive)
same,EC50,[12],> 54.7 µM (inactive)
same,IC50,[13],> 89.2 µM (inactive)
same,EC50,[14],> 54.7 µM (inactive)
same,IC50,[15],> 83.3 µM (inactive)
same,IC50,[16],> 9.26 µM (active)
CC1CCN(C(=O)Cn2c3ccc(F)cc3c3nc4n(c(=O)c32)CCCS4)CC1,AC50,[17],2.96 µM (active)
same,AC50,[18],41.8 µM (active)
Nc1nc(O)c2nc(Br)n([C@@H]3O[C@@H]4COP(=O)(O)O[C@H]4[C@H]3O)c2n1,EC50,[19],7.83 µM (active)
same,EC50,[20],2.15 µM (active)
COc1ccc(C(=O)Nc2cc(C)nn2-c2nc3ccccc3s2)cc1,IC50,[21],36.3 µM (active)
COc1cc(/C=C2\S/C(=N\c3ccccc3)N(CCc3c[nH]c4ccccc34)C2=O)ccc1OC(C)C(=O)O (stereo unspecified),EC50,[22],0.943 µM (active)
same,EC50,[23],4.12 µM (active)
same,EC50,[24],11.5 µM (active)
same,IC50,[25],8.13 µM (active)
same,IC50,[26],5.47 µM (active)
